Data taken from patent US12365672B2, “Compounds and their use for the treatment of alpha1-antitrypsin deficiency” (CENTESSA PHARMACEUTICALS (UK) LIMITED, priority 2019, dated 2025).

target: T1, human Z A1AT (Homo sapiens, UniProt P01009, E366K); assay: A1AT cell secretion assay using HEK-Z cells (ELISA of supernatant); format: cell-based; conditions: 48 h, A1AT in supernatant by ELISA
T1 construct: expressed in transfected cells; host or cells: HEK-Z cells (human embryonic kidney cell line)
Experimental: HEK-Z cells, a human embryonic kidney cell line stably transfected with the human Z A1AT gene, were plated into 96 well plates (3.0×10^5 cells/ml with 200 μl of media/well) overnight at 37° C. in a humidified atmosphere containing 5% CO2. Following incubation cells were washed with 200 μl serum-free media three times and media was replaced with treatments in quadruplicate using serum free media containing either vehicle, 10 μM suberanilohydroxamic acid (SAHA) or a compound of the invention (at concentrations of 10, 33, 100 and 333 nM) for 48 h in a 37° C. incubator in a final volume of 200 μl. At the end of the incubation step the supernatants were removed from the wells, centrifuged at 1000×g at 4° C. for 10 min and were assayed for human A1AT levels by ELISA (Human Serpin A1/α1-antitrypsin duo set ELISA, R& D Systems, DY1268) per manufacturer's instructions.
Briefly, a 96 well plate was coated with human A1AT capture antibody overnight at room temperature (1:180 dilution from stock, 100 μl final volume/well). The capture antibody was then removed and wells washed three times with 300 μl wash buffer (0.05% Tween 20 in PBS) and then 200 μl reagent diluent ([…]) was incubated in each well for 1 h at room temperature. Diluted samples, standards (125, 250, 500, 1000, 2000, 4000 and 8000 pg/ml A1AT) or blanks were then added to each well in duplicate and the plates were covered with a plate sealer and left at room temperature for 2 h. At the end of the sample incubation step, samples were removed and all wells washed as previously and 100 μl detection antibody (1:180 dilution from stock) was added to each well and incubated for a further 2 h at room temperature. […] After which, 50 μl stop solution (2M H2SO4) was added and optical density (OD) of each well was read at 450 nm with 570 nm blank subtracted from each well using a microplate reader. A 4 parameter logistic curve was constructed using GraphPad Prism 7 and A1AT concentrations were determined in each sample by interpolation from a standard curve and multiplying by the appropriate dilution factor.

T1 sequence (P01009 25-418 E366K): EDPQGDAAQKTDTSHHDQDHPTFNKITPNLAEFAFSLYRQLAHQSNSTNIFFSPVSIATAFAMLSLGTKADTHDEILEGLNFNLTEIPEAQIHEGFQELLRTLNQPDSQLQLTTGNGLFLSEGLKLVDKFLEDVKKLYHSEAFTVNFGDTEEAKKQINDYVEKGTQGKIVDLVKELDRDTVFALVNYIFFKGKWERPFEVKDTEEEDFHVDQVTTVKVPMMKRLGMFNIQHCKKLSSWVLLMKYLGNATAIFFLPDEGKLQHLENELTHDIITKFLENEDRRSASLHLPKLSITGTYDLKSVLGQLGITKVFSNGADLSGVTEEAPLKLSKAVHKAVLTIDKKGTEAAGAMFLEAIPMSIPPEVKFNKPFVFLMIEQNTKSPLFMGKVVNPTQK

| Compound | Median A1AT % increase over vehicle at 300 nM [%] |
| --- | --- |
| O=c1ccncn1Cc1ccc(-c2ncco2)cc1 [Example 1, 3-(4-(oxazol-2-yl)benzyl)pyrimidin-4(3H)-one] | 180 |
| O=c1c2ccccc2ncn1Cc1ccc(-c2ncco2)cc1 [Example 2, 3-(4-(oxazol-2-yl)benzyl)quinazolin-4(3H)-one] | 140 |
| O=c1cc[nH]c(=O)n1Cc1ccc(-c2ncco2)cc1 [Example 3, 3-(4-(oxazol-2-yl)benzyl)pyrimidine-2,4(1H,3H)-dione] | 180 |
